The record followed here is BindingDB's records for doi:10.1016/j.ejmech.2014.06.070 (The University of Newcastle, 2014).

Where only a bound is given, the exact number is not on record here.

Broadly, the IC50 is the midpoint of a concentration-inhibition curve.

The nature of this assay: Inhibition of Dynamin 1 in serum-starved human U2OS cells assessed as inhibition of clathrin-mediated […]-cojugated transferrin uptake pretreated for 30 mins by high-content imaging method.
For `O=C1C=C(Nc2ccc(O)cc2)C(=O)C=C1Nc1ccc(O)cc1`, the IC50 was determined as 36 µM.
`O=C1C=C(Nc2cccc(C(=O)O)c2)C(=O)C=C1Nc1cccc(C(=O)O)c1`: the 50% inhibitory concentration (IC50) was above 300 µM.
Take `O=C1C=C(Nc2ccc(C(=O)O)cc2)C(=O)C=C1Nc1ccc(C(=O)O)cc1`: the IC50 came to 200 µM.
As to `O=C1C=C(NCc2ccccc2)C(=O)C=C1NCc1ccccc1`, the IC50 worked out at 120 µM.
As for `O=C1C=C(Nc2ccccc2C(=O)O)C(=O)C=C1Nc1ccccc1C(=O)O` [2,2'-(3,6-dioxocyclohexa-1,4-diene-1,4-diyl)bis(azanediyl)dibenzoic acid], the IC50 came out at 162 µM.
